Results as given in patent publication US11292766B2, “Substituted piperidine compound and use thereof” (Takeda Pharmaceutical Company Limited, priority 2016, dated 2022).

Target: human orexin type 2 receptor (hOX2R) (Homo sapiens (Human), UniProt O43614)
Experiment: Measurement of orexin type 2 receptor agonist activity (Experimental Example 2-1, FLIPR intracellular Ca2+)
Format: cell-based
Description: To obtain a cell clone stably expressing human orexin type 2 receptor, human orexin type 2 receptor cDNA was inserted into pcDNA3.1(+) plasmid vector (Invitrogen), and a plasmid DNA for expression of human orexin type 2 receptor (pcDNA3.1(+)/hOX2R) was cloned. The plasmid DNA was introduced into CHO-dhfr cell by an electroporation method, and human orexin type 2 receptor expressing clone cells were obtained by limiting dilution method by using G418 drug resistance as a selection marker.
Chinese hamster ovary (CHO) dhfr-cells forcibly expressing human orexin type 2 receptor (hOX2R) were seeded in each well of Black clear bottom plate (384 wells) (Becton, Dickinson and Company) by 10,000 cells, and cultured for 16 hr in an MEM-alpha (Nikken-Bio Co., Ltd.) medium containing 100 U/ml penicillin, 100 μg/ml streptomycin, […] G418 (all above Invitrogen), and 10% fetal calf serum (Thermo), under the conditions of 37° C., 5% CO2. […] A test compound was dissolved in dimethyl sulfoxide to 10 mM, and then diluted with assay buffer 2 (20 mM HEPES, Hanks' balanced salt solution (Invitrogen), 0.1% bovine serum albumin). For the reaction, a test compound solution (10 μL) was added using Fluorescent Imaging Plate Reader TETRA (FLIPR TETRA; manufactured by Molecular Devices), a fluorescence value (excitation wavelength 488 nm, measurement wavelength 570 nm) of each well was measured every one second for 1 min, and the agonist activity was determined using the area of the fluorescence value as an indicator of intracellular Ca^2+ concentration.

[1] = CHO dhfr- cells expressing hOX2R, FLIPR TETRA Ca2+ fluorescence (Exp. Ex. 2-1)

Sequence of human orexin type 2 receptor (hOX2R) (O43614 whole entry): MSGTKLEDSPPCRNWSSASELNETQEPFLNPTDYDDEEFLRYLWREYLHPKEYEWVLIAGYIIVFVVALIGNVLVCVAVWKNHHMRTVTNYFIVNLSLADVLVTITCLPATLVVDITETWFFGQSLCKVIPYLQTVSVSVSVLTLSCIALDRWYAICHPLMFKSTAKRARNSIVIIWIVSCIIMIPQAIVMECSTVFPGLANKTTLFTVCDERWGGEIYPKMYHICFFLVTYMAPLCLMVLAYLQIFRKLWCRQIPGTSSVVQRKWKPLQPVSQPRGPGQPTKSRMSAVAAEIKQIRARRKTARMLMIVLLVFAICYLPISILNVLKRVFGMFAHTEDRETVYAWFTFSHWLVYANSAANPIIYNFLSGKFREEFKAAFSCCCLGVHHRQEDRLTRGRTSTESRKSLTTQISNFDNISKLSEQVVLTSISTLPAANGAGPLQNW

Row | Compound | EC50 [1] [nM] | Emax (%) [1] [%] | Emax at 30 µM (value at 30 uM concentration, orexin B as full agonist = 100%) [%]
1 | cis-N-ethyl-3- ((methylsulfonyl)amino)-2- (((cis-2-phenyl-1,3-dioxan- 5-yl)oxy)methyl) piperidine-1-carboxamide [Example 140] | 390 | 92 | –
2 | CCOC(=O)N1CCC[C@H](NS(C)(=O)=O)[C@@H]1CO[C@H]1CC[C@@H](c2ccccc2)CC1 [Example 303, ethyl (2R,3S)-3-((methylsulfonyl)amino)-2-(((cis-4-phenylcyclohexyl)oxy)methyl)-piperidine-1-carboxylate] | 15 | – | –
3 | COc1cccc([C@H]2CC[C@@H](OC[C@H]3[C@@H](NS(C)(=O)=O)CCCN3C(=O)C3CC3)CC2)c1 [Example 304, N-((2R,3S)-1-(cyclopropylcarbonyl)-2-(((cis-4-(3-methoxyphenyl)cyclohexyl)oxy)-methyl)piperidin-3-yl) methanesulfonamide] | 23 | – | –
4 | COc1ccccc1[C@H]1CC[C@@H](OC[C@H]2[C@@H](NS(C)(=O)=O)CCCN2C(=O)C2CC2)CC1 [Example 28, N-((2R,3S)-1-(cyclopropylcarbonyl)-2-(((cis-4-(2-methoxyphenyl)cyclohexyl)oxy)methyl)piperidin-3-yl)methanesulfonamide] | – | – | 98
